Measurements published in ChEMBL document CHEMBL2380278, “Synthesis and antibacterial evaluation of a novel series of 10-hydroxyl ketolide derivatives” (2013).
Values after ≈ are worked out from the molar mass of the structure shown.

Tests used:
Pseudomonas aeruginosa [1] = test: Antibacterial activity against drug-resistant Pseudomonas aeruginosa by broth microdilution method; type: functional
Salmonella typhi = test: Antibacterial activity against drug-resistant Salmonella typhi by broth microdilution method; type: functional, Salmonella enterica subsp. enterica serovar Typhi; conditions: Salmonella enterica
Klebsiella pneumoniae = test: Antibacterial activity against drug-resistant Klebsiella pneumoniae by broth microdilution method; type: functional
Escherichia coli [2] = test: Antibacterial activity against drug-resistant Escherichia coli by broth microdilution method; type: functional
[3] = tested on: Staphylococcus epidermidis; test: Antibacterial activity against drug-resistant Staphylococcus epidermidis by broth microdilution method; type: functional
Staphylococcus aureus [4] = test: Antibacterial activity against drug-resistant Staphylococcus aureus by broth microdilution method; type: functional
Pseudomonas aeruginosa [5] = test: Antibacterial activity against Pseudomonas aeruginosa ATCC 27853 by broth microdilution method; type: functional
Escherichia coli [6] = test: Antibacterial activity against Escherichia coli ATCC 35218 by broth microdilution method; type: functional
Escherichia coli [7] = test: Antibacterial activity against Escherichia coli ATCC 25922 by broth microdilution method; type: functional
Staphylococcus aureus [8] = test: Antibacterial activity against Staphylococcus aureus ATCC 25923 by broth microdilution method; type: functional

| SMILES | MIC (Pseudomonas aeruginosa [1]) [µg/mL] | MIC (Salmonella typhi) [µg/mL] | MIC (Klebsiella pneumoniae) [µg/mL] | MIC (Escherichia coli [2]) [µg/mL] | MIC [3] [µg/mL] | MIC (Staphylococcus aureus [4]) [µg/mL] | MIC (Pseudomonas aeruginosa [5]) [µg/mL] | MIC (Escherichia coli [6]) [µg/mL] | MIC (Escherichia coli [7]) [µg/mL] | MIC (Staphylococcus aureus [8]) [µg/mL] |
| --- | --- | --- | --- | --- | --- | --- | --- | --- | --- | --- |
| CC[C@H]1OC(=O)[C@H](C)C(=O)[C@H](C)[C@@H](O[C@@H]2O[C@H](C)C[C@H](N(C)C)[C@H]2O)[C@](C)(OC)C[C@@H](C)C(=O)[C@H](C)[C@H]2N(CCCCn3cnc(-c4cccnc4)c3)C(=O)O[C@]12C [TELITHROMYCIN] | 64 (≈ 78.8 µM) | 16 (≈ 19.7 µM) | 16 (≈ 19.7 µM) | 32 (≈ 39.4 µM) | 0.125 (≈ 0.154 µM) | 16 (≈ 19.7 µM) | 64 (≈ 78.8 µM) | 8 (≈ 9.85 µM) | 2 (≈ 2.46 µM) | 16 (≈ 19.7 µM) |
| CC[C@H]1OC(=O)[C@H](C)C(=O)[C@H](C)[C@@H](O[C@@H]2O[C@H](C)C[C@H](N(C)C)[C@H]2O)[C@](C)(OC)C[C@@H](C)C(=O)[C@@](C)(O)[C@H]2OC(=O)O[C@]12C | > 128 | > 128 | > 128 | > 128 | 64 (≈ 102 µM) | > 128 | > 128 | > 128 | > 128 | 128 (≈ 203 µM) |
| CC[C@H]1OC(=O)[C@H](C)[C@@H](O[C@H]2C[C@@](C)(OC)[C@@H](O)[C@H](C)O2)[C@H](C)[C@@H](O[C@@H]2O[C@H](C)C[C@H](N(C)C)[C@H]2O)[C@](C)(OC)C[C@@H](C)C(=O)[C@H](C)[C@@H](O)[C@]1(C)O [CLARITHROMYCIN] | 128 (≈ 171 µM) | 64 (≈ 85.6 µM) | 64 (≈ 85.6 µM) | 64 (≈ 85.6 µM) | 64 (≈ 85.6 µM) | > 128 | 64 (≈ 85.6 µM) | 32 (≈ 42.8 µM) | 64 (≈ 85.6 µM) | 32 (≈ 42.8 µM) |
| CC[C@H]1OC(=O)[C@H](C)C(=O)[C@H](C)[C@@H](O[C@@H]2O[C@H](C)C[C@H](N(C)C)[C@H]2O)[C@](C)(OC)C[C@@H](C)C(=O)[C@@](C)(O)[C@H]2OS(=O)O[C@]12C (stereo not given in full) | > 128 | > 128 | > 128 | > 128 | 8 (≈ 12.3 µM) | > 128 | > 128 | > 128 | > 128 | 64 (≈ 98.5 µM) |
| CC[C@H]1OC(=O)[C@H](C)C(=O)[C@H](C)[C@@H](O[C@@H]2O[C@H](C)C[C@H](N(C)C)[C@H]2O)[C@](C)(OC)C[C@@H](C)C(=O)[C@@](C)(O)[C@H](O)[C@]1(C)O | > 128 | > 128 | > 128 | > 128 | > 128 | > 128 | > 128 | > 128 | > 128 | 64 (≈ 106 µM) |
| CC[C@H]1OC(=O)[C@H](C)C(=O)[C@H](C)[C@@H](O[C@@H]2O[C@H](C)C[C@H](N(C)C)[C@H]2O)[C@](C)(OC)C[C@@H](C)C(=O)[C@@H](C)[C@H]2OC(=O)O[C@@]21C | > 128 | 128 (≈ 209 µM) | 128 (≈ 209 µM) | 64 (≈ 104 µM) | 0.0625 (≈ 0.102 µM) | 128 (≈ 209 µM) | > 128 | 128 (≈ 209 µM) | 128 (≈ 209 µM) | 64 (≈ 104 µM) |
| CC[C@H]1OC(=O)[C@H](C)C(=O)[C@H](C)[C@@H](O[C@@H]2O[C@H](C)C[C@H](N(C)C)[C@H]2O)[C@](C)(OC)C[C@@H](C)C(=O)[C@]2(C)O[C@H]2[C@]1(C)O | > 128 | > 128 | > 128 | > 128 | 128 (≈ 219 µM) | > 128 | > 128 | > 128 | > 128 | 128 (≈ 219 µM) |
